Measurements from ChEMBL document CHEMBL1821685 (Eur J Med Chem, 2011).
Values after ≈ are worked out from the molar mass of the structure shown.

Test: Solubility of the compound in HEPES buffer
Format: physicochemical

CC(=O)c1cnc2c(=O)[nH]c(N)nc2n1
solubility: 500 µM (≈ 103 µg/mL)

NNC(=O)c1cnc2c(=O)[nH]c(N)nc2n1
solubility: 500 µM (≈ 111 µg/mL)
